Measurements taken from patent US10316028B2, “Orexin receptor antagonists” (Heptares Therapeutics Limited, priority 2012, dated 2019).

Target: T1, human Orexin-2 receptor (Homo sapiens, UniProt O43614)
T1 construct: expressed in transfected cells; host or cells: HEK293 cells (transient transfection, Genejuice); membranes
T1 sequence (O43614 1-444): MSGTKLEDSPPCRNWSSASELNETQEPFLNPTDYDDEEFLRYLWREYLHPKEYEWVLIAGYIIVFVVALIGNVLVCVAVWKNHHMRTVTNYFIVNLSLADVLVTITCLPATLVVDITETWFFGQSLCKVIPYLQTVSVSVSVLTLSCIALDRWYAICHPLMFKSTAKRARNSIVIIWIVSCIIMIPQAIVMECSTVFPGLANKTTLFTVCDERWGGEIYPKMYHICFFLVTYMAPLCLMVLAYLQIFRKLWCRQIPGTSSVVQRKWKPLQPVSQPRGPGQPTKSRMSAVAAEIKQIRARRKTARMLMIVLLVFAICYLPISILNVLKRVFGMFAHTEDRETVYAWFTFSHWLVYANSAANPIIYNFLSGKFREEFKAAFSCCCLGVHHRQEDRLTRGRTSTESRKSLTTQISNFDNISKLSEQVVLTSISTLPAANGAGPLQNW
Test: 3H-EMPA radioligand binding assay
Conditions: 3H-EMPA displacement, membranes of HEK293 cells transfected with human Orexin-2 receptor; KI by Cheng-Prussoff; read-out: OX2 pKi ave (converted)
Outline: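 Membranes from HEK293 cells transiently transfected with human orexin-2 receptor cDNA, assayed with [3H]EMPA. Bound ligand collected on PEI-treated GF/B filters and counted by scintillation; IC50 from inhibition curves, Ki by Cheng-Prusoff.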

Row | Ki [nM] | Compound
1 | 6.46 | COc1cc(N2C(=O)N(Cc3c(F)cc(F)cc3F)c3ncccc3S2(=O)=O)cnc1C [Example 176, 2-(5-Methoxy-6-methylpyridin-3-yl)-4-(2,4,6-trifluorobenzyl)-2H-pyrido[2,3-e][1,2,4]thiadiazin-3(4H)-one 1,1-dioxide]
2 | 2.19 | CNc1ncc(N2C(=O)N(Cc3c(F)cc(OC)cc3F)c3ncccc3S2(=O)=O)cc1OC [Example 177, 2-[5-Methoxy-6-(methylamino)pyridin-3-yl]-4-(2,6-difluoro-4-methoxybenzyl)-2H-pyrido[2,3-e][1,2,4]thiadiazin-3(4H)-one 1,1-dioxide]
3 | 8.51 | CNc1ncc(N2C(=O)N(Cc3c(F)cc(OC)cc3F)c3ncccc3S2(=O)=O)cc1C [Example 184, 4-(2,6-Difluoro-4-methoxybenzyl)-2-[5-methyl-6-(methylamino)pyridin-3-yl]-2H-pyrido[2,3-e][1,2,4]thiadiazin-3(4H)-one 1,1-dioxide]
4 | 4.17 | COc1cc(N2C(=O)N(Cc3c(F)cc(F)cc3Cl)c3ncccc3S2(=O)=O)cnc1OC [Example 185, 4-(2-Chloro-4,6-difluorobenzyl)-2-(5,6-dimethoxypyridin-3-yl)-2H-pyrido[2,3-e][1,2,4]thiadiazin-3(4H)-one 1,1-dioxide]
5 | 1.26 | CNc1cc(N2C(=O)N(Cc3c(F)cc(OC)cc3F)c3ncccc3S2(=O)=O)cnc1OC [Example 186, 4-(2,6-Difluoro-4-methoxybenzyl)-2-[6-methoxy-5-(methylamino)pyridin-3-yl]-2H-pyrido[2,3-e][1,2,4]thiadiazin-3(4H)-one 1,1-dioxide]

Continued, compound first:

Row | Compound | Ki [nM]
6 | COc1cc(F)c(CN2C(=O)N(c3ccc(C)c(OC)n3)S(=O)(=O)c3cccnc32)c(F)c1 [Example 175, 4-(2,6-Difluoro-4-methoxybenzyl)-2-(6-methoxy-5-methylpyridin-2-yl)-2H-pyrido[2,3-e][1,2,4]thiadiazin-3(4H)-one 1,1-dioxide] | 1.35
7 | COc1cc(F)c(CN2C(=O)N(c3cnc(C)c(C)c3)S(=O)(=O)c3ccccc32)c(F)c1 [Example 178, 4-(2,6-difluoro-4-methoxybenzyl)-2-(5,6-dimethylpyridin-3-yl)-2H-1,2,4-benzothiadiazin-3(4H)-one 1,1-dioxide] | 4.37
8 | CNc1nc(N2C(=O)N(Cc3c(F)cc(OC)cc3F)c3ccccc3S2(=O)=O)ccc1OC [Example 179, 4-(2,6-difluoro-4-methoxybenzyl)-2-[5-methoxy-6-(methylamino)pyridin-2-yl]-2H-1,2,4-benzothiadiazin-3(4H)-one 1,1-dioxide] | 3.72
9 | COc1cc(N2C(=O)N(Cc3c(F)cc(F)cc3Cl)c3ncccc3S2(=O)=O)cc(OC)n1 [Example 180, 4-(2-Chloro-4,6-difluorobenzyl)-2-(2,6-dimethoxypyridin-4-yl)-2H-pyrido[2,3-e][1,2,4]thiadiazin-3(4H)-one 1,1-dioxide] | 2.04
10 | CNc1cc(N2C(=O)N(Cc3c(F)cc(OC)cc3F)c3ccccc3S2(=O)=O)cnc1OC [Example 181, 4-(2,6-difluoro-4-methoxybenzyl)-2-[6-methoxy-5-(methylamino)pyridin-3-yl]-2H-1,2,4-benzothiadiazin-3(4H)-one 1,1-dioxide] | 1.62
11 | COc1cc(F)c(CN2C(=O)N(c3ccc4ncsc4c3)S(=O)(=O)c3cccnc32)c(F)c1 [Example 182, 2-(1,3-Benzothiazol-6-yl)-4-(2,6-difluoro-4-methoxybenzyl)-2H-pyrido[2,3-e][1,2,4]thiadiazin-3(4H)-one 1,1-dioxide] | 4.47
12 | COc1cc(OC)nc(N2C(=O)N(Cc3c(F)cc(OC)cc3F)c3ccccc3S2(=O)=O)c1 [Example 183, 4-(2,6-difluoro-4-methoxybenzyl)-2-(4,6-dimethoxypyridin-2-yl)-2H-1,2,4-benzothiadiazin-3(4H)-one 1,1-dioxide] | 2.75
